Test results taken from patent publication US20190282616A1, “MACROPHAGES REDIRECT PHAGOCYTOSIS BY NON-PROFESSIONAL PHAGOCYTES AND INFLUENCE INFLAMMATION” (University of Virginia Patent Foundation, priority 2016, published 2019).

Tests used:
[1] = system: LR73 cells; experiment: In vitro engulfment assay: apoptotic thymocyte uptake by LR73 cells; type: cell-based, hamster; details: for reversal of IGF-1 mediated engulfment suppression in LR73 cells: agent added in the presence of IGF-1; for basal phagocytosis of apoptotic cells with inhibitor alone: without IGF-1; for apoptotic cell uptake by LR73 cells: human insulin or human IGF-II, at higher concentrations than IGF-1; for apoptotic cell uptake (engulfment) by LR73 cells: soluble mediator alone, IGF-I at concentrations reported in serum (100-600 ng/mL), other factors over a range of concentrations
Protocol: (§1) LR73, SVEC-40, BEAS-2B, and 16HBE14o-cells were seeded in a 24 well plate. Thymocytes were isolated from 4-6 week old mice and induced to undergo apoptosis with dexamethasone. Thymocytes or prepared microvesicles were then stained with either CypHer5E (GE Healthcare, PA15401) or TAMRA (Invitrogen, C-1171). LR73 and SVEC-40 cells were incubated with apoptotic thymocytes at a 1:10 phagocyte to target ratio, BEAS-2B at a 1:5 phagocyte to target ratio, and 16HBE14o—at a 1:20 phagocyte to target ratio for 2 hours. Mouse IGF-I (Sigma-Aldrich), human IGF-I (Sigma-Aldrich), human IGF-II (Sigma-Aldrich) were added to the phagocytes at the same time as addition of apoptotic targets. For IGFBP3 studies, IGFBP3 (Sigma-Aldrich) was added to media or supernatant from J774 cells for one hour to allow IGFBP3 to bind to any available IGF-I, then the mix is added to phagocytes along with apoptotic targets. For all pharmacological studies, phagocytes were pre-incubated with the compounds listed below for one hour prior to addition of apoptotic targets: cytochalasin D (Sigma-Aldrich, C8273, 1 μM), Latrunculin A (Tocris, 3973, 150 nM), CK-666 (Tocris, 3950, 25 μM-100 μM), OSI-906 (Selleckchem, S1091, 5 nM-40 nM), NVP-AEW541 (Selleckchem, S1034, 25 nM-100 nM), Rapamycin (Sigma-Aldrich, R0395, […]), MK-2206 2HCl (Selleckchem, S1078, 10 nM-1 U0126-EtOH (Selleckchem, S1102, […]), Wortmannin (Sigma-Aldrich, W1628, 50 nM-200 nM), Y27632 (Calbiochem, 688000, 3.75 μM-15 μM), or GSK269962 (Tocris, 4009, 80 nM-2 μM). […] Targets were then washed off three times with PBS, and the cells were dissociated from the plate with trypsin and the engulfment assessed by flow cytometry.

[2] = system: IC-21 cells; experiment: Apoptotic thymocyte engulfment by IC-21 cells; type: cell-based; details: indicated concentrations of mouse IGF-1 or human insulin
[3] = system: IGF-1R, Akt and Erk1/2 phosphorylation in LR73 cells; experiment: Immunoblotting of signaling in LR73 cells; type: cell-based, hamster; details: for phosphorylation of IGF-1R and Erk: LR73 cells stimulated with IGF-1 and treated with inhibitor; for early downstream signaling events (Erk1/2 phosphorylation): serum-starved LR73 cells, 100 ng/mL growth factor
Protocol: LR73, J774, or BEAS-2B cells were seeded in a 60 mm dish at a concentration of 5×10^5. […] Cells were lysed in RIPA buffer and used in Western blots. The blots were probed for phospho-Erk1/2 (Cell Signaling Technology, #4370), phospho-Akt (Cell Signaling Technology, #4060), phospho-IGF-1R (Cell Signaling, #3024), total Erk2 (Santa Cruz Biotechnology, #sc-154-G), total Akt (Cell Signaling Technology, #4691), total IGF-1R (Cell Signaling, #9750), and anti-B-actin-HRP (Sigma-Aldrich, #A3854) followed by chemiluminescence detection.

[4] = system: LR73 cells; details: for effect on IGF-1 induced increase in liposome uptake / basal uptake of liposomes: LR73 cells; for effect on IGF-1 induced increase in liposome uptake: inhibitor plus IGF-1; for basal uptake of liposomes: inhibitor without IGF-1; for uptake of PtdSer containing liposomes by LR73 cells: liposomes of 150-200 nm, IGF-1 50 ng/mL, EGF or VEGF 100 ng/mL each
Protocol: as §1
Liposomes were prepared by dissolving the lipids (phosphatidylserine, dioleoyl phosphatidylcholine, cholesterol and the lipid DiD dye) in chloroform, evaporating chloroform under flow of argon gas in a glass vial, then subjecting the lipid layer to overnight lyophilization to remove traces of organic solvent. Then normal saline was added for hydration, and intense vortexing was preformed to prepare multilamellar vesicles (MIN). Liposomes were repeatedly filtered through a 0.2 um Nuclepore polycarbonate filter to prepare smaller particles. Particle size was verified by dynamic light scattering using Nicomp 370.

[5] = system: IGF-1 in BAL fluid; experiment: In vivo cytokine administration: IGF-1 in BAL fluid; details: 1 μg recombinant mouse cytokine intranasally for two consecutive days
Protocol: Mice were administered intranasally with 1 μg of recombinant mouse IL-4, IL-5, or IL-13 (eBiosciences), 1×10^6 apoptotic Jurkat cells, or PBS as control, for two consecutive days. On the third day, BAL fluid was recovered and centrifuged; the supernatant was stored at −80° C. for subsequent cytokine analysis. IL-4, IL-5, IL-6, and CCL-11/Eotaxin-1 in the BAL fluid of mice that were sensitized with HDM (regimen #1) were quantified by a multiplex Luminex performed by the University of Virginia Flow Cytometry Core Facility. Secretion of IGF-1 from J774 cells, peritoneal macrophages, and BAL fluids, as well as TSLP from BAL fluids, were measured by ELISA (R&D Systems).

[6] = system: MH-S alveolar macrophages; experiment: Microvesicle secretion by MH-S alveolar macrophages; type: cell-based, mouse; details: IL-4 treated MH-S alveolar macrophages, counted using qNano
Protocol: MH-S, mouse alveolar macrophages, or primary mouse alveolar macrophages were seeded. After adherence, the media was replaced with 0.22 μm filtered media to remove any contaminating microvesicles. After an overnight incubation, the supernatant was harvested and spun at 5000×g to remove cell debris and apoptotic bodies. The pellet was discarded and the resulting supernatant was filtered through 0.8 μm filter and spun again at 17,000×g. The pelleted microvesicles were then washed with HBSS and then spun again at 17,000×g. For engulfment assays, microvesicles were stained with TAMRA for 20 minutes and then added to BEAS-2B cells for 90 minutes. For flow cytometry, purified particles were stained with CD11c, Siglec F, and Annexin V (BD Biosciences, Cat. No. 550475) and processed on Imagestream™ imaging flow cytometer (Amnis). Microvesicle size distribution was characterized using qNano (IZON Science) with a NP400 membrane and at least 500 particles were counted. Microvesicles were prepared for cryo-electron microscopy using standard methods and imaged on an FEI TF20.

[7] = system: peritoneal macrophages; experiment: IGF-1 secretion by peritoneal macrophages (ELISA); type: cell-based, mouse; details: treated with IL-4
Protocol: To obtain bone-marrow derived macrophages, femurs were removed from 8 week old mice and flushed with 5 mL of sterile PBS containing 5% FBS. The cell suspension was centrifuged, treated with red blood cell lysis buffer, washed, and then plated onto sterile petri dishes in DMEM containing 10% L929 media, 10% FBS and 1% penicillin/streptomycin/glutamine (PSQ). Media was replenished every 2 to 3 days and differentiated cells were used at day 6 post-harvest. Resident peritoneal macrophages were obtained by flushing the peritoneal cavity of mice with 10 mL of cold PBS containing 5% FBS. Collected cells were spun down, resuspended in X-VIVO 10 (Lonza) and plated at a concentration of 3×10^5 cells per well in a 24 well plate for IGF-1 secretion assays, and 5×10^5 per well in a 24 well plate for engulfment assays. Floating cells were washed the next day and remaining peritoneal macrophages were used 2 days after isolation. […]
IL-4, IL-5, IL-6, and CCL-11/Eotaxin-1 in the BAL fluid of mice that were sensitized with HDM (regimen #1) were quantified by a multiplex Luminex performed by the University of Virginia Flow Cytometry Core Facility. Secretion of IGF-1 from J774 cells, peritoneal macrophages, and BAL fluids, as well as TSLP from BAL fluids, were measured by ELISA (R&D Systems).

Compound: C[C@@H](N)[C@H]1CC[C@H](C(=O)Nc2ccncc2)CC1 [Y27632, reference compound]
- reversal of IGF-1 mediated engulfment suppression in LR73 cells [1]: does not appear to rescue IGF-1 induced engulfment suppression
- basal phagocytosis of apoptotic cells with inhibitor alone [1]: basally increases phagocytosis of apoptotic cells

Compound: insulin: shares structural similarity with IGF-1, lower affinity for IGF-1R
- corpse uptake by IC-21 cells [2]: engulf apoptotic cells at normal capacity
- apoptotic cell uptake by LR73 cells [1]: could also reduce apoptotic cell uptake

Compound: Nc1ncnc2c1c(-c1cccc(OCc3ccccc3)c1)cn2C1CC(CN2CCC2)C1 (centres unmarked) [NVP-AEW541, reference compound]
- phosphorylation of IGF-1R and Erk [3]: concomitant decrease in phosphorylation of IGF-1R and Erk
- reversal of IGF-1 mediated engulfment suppression in LR73 cells [1]: rescued the engulfment capacity of LR73 cells

Compound: Cc1[nH]c2ccccc2c1CCNC(=O)c1ccccc1F [CK-666]
- effect on IGF-1 induced increase in liposome uptake [4]: minimal effect

Compound: insulin-like growth factor II [IGF-II]
- apoptotic cell uptake by LR73 cells [1]: could also reduce apoptotic cell uptake

Compound: fibroblast growth factor 2 [FGF2]
- early downstream signaling events (Erk1/2 phosphorylation) [3]: elicited early downstream signaling events
- apoptotic cell uptake (engulfment) by LR73 cells [1]: did not alter engulfment

Compound: C=C1[C@@H](C)[C@H]2[C@H](Cc3ccccc3)NC(=O)[C@]23[C@H](OC(C)=O)/C=C/[C@@](C)(O)C(=O)[C@@H](C)C/C=C/[C@H]3[C@@H]1O [Cytochalasin D]
- effect on IGF-1 induced increase in liposome uptake [4]: blocked the IGF-1 induced increase in liposome uptake
- basal uptake of liposomes [4]: did not affect the basal uptake of liposomes
- morphology of treated LR73 cells ([4]; for the duration of the assay): appeared morphologically normal
- basal phagocytosis of apoptotic cells with inhibitor alone [1]: potently inhibited phagocytosis of apoptotic cells

Compound: CCn1c(-c2nonc2N)nc2cnc(Oc3cccc(NC(=O)c4ccc(OCCN5CCOCC5)cc4)c3)cc21 [GSK269962, reference compound]
- reversal of IGF-1 mediated engulfment suppression in LR73 cells [1]: does not appear to rescue IGF-1 induced engulfment suppression
- basal phagocytosis of apoptotic cells with inhibitor alone [1]: basally increases phagocytosis of apoptotic cells

Compound: PDGF-AA: growth factor of the tested panel of soluble mediators
- early downstream signaling events (Erk1/2 phosphorylation) [3]: elicited early downstream signaling events
- apoptotic cell uptake (engulfment) by LR73 cells [1]: did not alter engulfment

Compound: C/C1=C/C(=O)O[C@@H]2C[C@@H](CC[C@H](C)/C=C\C=C\CC1)O[C@@](O)([C@@H]1CSC(=O)N1)C2 [Latrunculin A]
- effect on IGF-1 induced increase in liposome uptake [4]: reversed IGF-1 mediated enhancement of liposome uptake
- basal uptake of liposomes [4]: without affecting the basal uptake of liposomes

Compound: IL-4: cytokine; recombinant mouse IL-4 (eBiosciences)
- IGF-1 in bronchoalveolar lavage (BAL) fluid [5]: increased level of IGF-1
- microvesicles secretion by macrophages [6]: increased microvesicles secretion
- IGF-1 secretion by peritoneal macrophages [7]: confirmed IGF-1 secretion

Compound: VEGF
- early downstream signaling events (Erk1/2 phosphorylation) [3]: elicited early downstream signaling events
- uptake of PtdSer containing liposomes by LR73 cells [4]: not seen
- apoptotic cell uptake (engulfment) by LR73 cells [1]: did not alter engulfment

Compound: EGF: growth factor of the tested panel of soluble mediators (NSDSECPLSHDGYCLHDGVCMYIEALDKYACNCVVGYIGERCQYRDLKWWELR; Epidermal growth factor; UniProt P01133 971-1023, looked up)
- early downstream signaling events (Erk1/2 phosphorylation) [3]: elicited early downstream signaling events
- uptake of PtdSer containing liposomes by LR73 cells [4]: not seen
- apoptotic cell uptake (engulfment) by LR73 cells [1]: did not alter engulfment

Compound: C[C@]1(O)C[C@@H](c2nc(-c3ccc4ccc(-c5ccccc5)nc4c3)c3c(N)nccn32)C1 [OSI-906, reference compound]
- phosphorylation of IGF-1R and Erk [3]: concomitant decrease in phosphorylation of IGF-1R and Erk
- effect on IGF-1 induced increase in liposome uptake [4]: reduced the increased liposome uptake
- reversal of IGF-1 mediated engulfment suppression in LR73 cells [1]: rescued the engulfment capacity of LR73 cells

Compound: IGFBP3: IGF binding protein that stabilizes and sequesters IGF-1 (Sigma-Aldrich)
- reversal of suppression by macrophage produced IGF-1 ([1]; J774 supernatant incubated with IGFBP3, LR73 cells): reversed by IGFBP3 addition
- reversal of IGF-1 mediated engulfment suppression in LR73 cells [1]: restored the phagocytic capability of LR73 cells
- basal phagocytosis by LR73 cells ([1]; supernatant of unstimulated J774 cells plus IGFBP3): increases the basal phagocytosis
